Data taken from patent US20220267736A1, “PLURIPOTENT STEM CELL AGGREGATION SUPPRESSOR” (KANEKA CORPORATION, priority 2017, published 2022).

Test system: human iPS cells (TkDN4-M)
Assay: Cell aggregate size distribution (widest portion) from micrographs during suspension culture
Type: cell-based
Conditions: cytochalasin D 20 nM, jasplakinolide 20 nM, demecolcine 10 ng/mL; for percentage of cell aggregates whose size (diameter) was 40 μm or more and 300 μm or less, relative to the total cell aggregate count / percentage of cell aggregates whose size (diameter) was 60 μm or more and 300 μm or less / percentage of cell aggregates whose size (diameter) was 80 μm or more and 300 μm or less / percentage of cell aggregates whose size (diameter) was 100 μm or more and 300 μm or less / Number of cell aggregates by size / Percentage of cell aggregates by size: Day 1, DMSO 1%; for average ± standard deviation of cell aggregate sizes (diameters): Day 1 of culture, DMSO 1% (v/v), Y-27632 10 μM
Experimental: Cell suspensions were prepared in the same manner as in Example 2, and separately, the concentrations of the suppressors of cell aggregation were adjusted so that the final concentration of demecolcine (same as above) was 10 mg/mL (26.9 mM), the final concentration of cytochalasin D (same as above) was 0.51 mg/mL (1 mM), the concentration of DMSO (the same as above) was the stock concentration, or the final concentration of jasplakinolide (Cayman, 11705) was 0.14 mg/mL (0.2 mM). Then the concentration-adjusted cell aggregation suppressors were added to the cell suspensions so that the final concentration of demecolcine was 10 ng/mL, the final concentration of cytochalasin D was 20 nM, the final concentration of DMSO was 1% (v/v), or the final concentration of jasplakinolide was 20 nM, and the cells were seeded at a rate of 4 mL/well in a 6-well plate for suspension culture (Sumitomo Bakelite Co., Ltd., Japan). The cell-seeded plate was subjected to a swirling culture on a rotary shaker (OPTIMA, Inc., Japan) at a speed of 90 rpm along the horizontal plane to draw a circle with a swirling width (diameter) of 25 mm and cells were subjected to suspension culture under the environment of 5% CO2 and 37° C. After the next day of culture (Day 1 of culture), the culture medium was exchanged daily with a fresh culture medium (Essential 8™ culture medium containing BSA (Wako Pure Chemical Industries, Ltd.) at a final concentration of 5 mg/mL), and the culture was continued until 5 days after the start of culture. Images were obtained by phase contrast microscopy every day during culture. While 182 to 252 cell aggregates in images obtained on Day 1 of culture being observed and compared using a micrograph scale, the width (referred to as “φ”) of the widest portion of each cell aggregate was measured, distribution thereof was examined, and average±standard deviation was calculated. The concentration of glucose contained in the culture supernatant collected at the time of culture medium exchange was measured with biosensor BF-5iD (Prince Measuring Equipment Co., Ltd.) to calculate glucose consumption.

CN[C@H]1CCc2cc(OC)c(OC)c(OC)c2-c2ccc(OC)c(=O)cc21 [demecolcine]
percentage of cell aggregates whose size (diameter) was 40 μm or more and 300 μm or less, relative to the total cell aggregate count: 100% | percentage of cell aggregates whose size (diameter) was 60 μm or more and 300 μm or less: 97.3% | percentage of cell aggregates whose size (diameter) was 80 μm or more and 300 μm or less: 93.5% | percentage of cell aggregates whose size (diameter) was 100 μm or more and 300 μm or less: 92.4% | Number of cell aggregates by size (size range 40− μm): 5 | Percentage of cell aggregates by size (size range 40− μm): 2.7% | Number of cell aggregates by size (size range 60− μm): 7 | Percentage of cell aggregates by size (size range 60− μm): 3.8% | Number of cell aggregates by size (size range 80− μm): 2 | Percentage of cell aggregates by size (size range 80− μm): 1.1% | Number of cell aggregates by size (size range 100− μm): 0 | Percentage of cell aggregates by size (size range 100− μm): 0.0% | Number of cell aggregates by size (size range 120− μm): 2 | Percentage of cell aggregates by size (size range 120− μm): 1.1% | Number of cell aggregates by size (size range 140− μm): 16 | Percentage of cell aggregates by size (size range 140− μm): 8.8% | Number of cell aggregates by size (size range 160− μm): 37 | Percentage of cell aggregates by size (size range 160− μm): 20.3% | Number of cell aggregates by size (size range 180− μm): 45 | Percentage of cell aggregates by size (size range 180− μm): 24.7% | Number of cell aggregates by size (size range 200− μm): 38 | Percentage of cell aggregates by size (size range 200− μm): 20.9% | Number of cell aggregates by size (size range 220− μm): 19 | Percentage of cell aggregates by size (size range 220− μm): 10.4% | Number of cell aggregates by size (size range 240− μm): 8 | Percentage of cell aggregates by size (size range 240− μm): 4.4% | Number of cell aggregates by size (size range 260− μm): 2 | Percentage of cell aggregates by size (size range 260− μm): 1.1% | Number of cell aggregates by size (size range 280− μm): 0 | Percentage of cell aggregates by size (size range 280− μm): 0.0% | Number of cell aggregates by size (size range 300− μm): 1 | Percentage of cell aggregates by size (size range 300− μm): 0.5% | average ± standard deviation of cell aggregate sizes (diameters): 184.9±44.9 μm

C[S+](C)[O-] [DMSO, dimethylsulfoxide]
percentage of cell aggregates whose size (diameter) was 40 μm or more and 300 μm or less, relative to the total cell aggregate count: 100% | percentage of cell aggregates whose size (diameter) was 60 μm or more and 300 μm or less: 100% | percentage of cell aggregates whose size (diameter) was 80 μm or more and 300 μm or less: 98.5% | percentage of cell aggregates whose size (diameter) was 100 μm or more and 300 μm or less: 96.0% | Number of cell aggregates by size (size range 40− μm): 0 | Percentage of cell aggregates by size (size range 40− μm): 0.0% | Number of cell aggregates by size (size range 60− μm): 3 | Percentage of cell aggregates by size (size range 60− μm): 1.5% | Number of cell aggregates by size (size range 80− μm): 5 | Percentage of cell aggregates by size (size range 80− μm): 2.5% | Number of cell aggregates by size (size range 100− μm): 2 | Percentage of cell aggregates by size (size range 100− μm): 1.0% | Number of cell aggregates by size (size range 120− μm): 24 | Percentage of cell aggregates by size (size range 120− μm): 12.1% | Number of cell aggregates by size (size range 140− μm): 56 | Percentage of cell aggregates by size (size range 140− μm): 28.1% | Number of cell aggregates by size (size range 160− μm): 56 | Percentage of cell aggregates by size (size range 160− μm): 28.1% | Number of cell aggregates by size (size range 180− μm): 33 | Percentage of cell aggregates by size (size range 180− μm): 16.6% | Number of cell aggregates by size (size range 200− μm): 12 | Percentage of cell aggregates by size (size range 200− μm): 6.0% | Number of cell aggregates by size (size range 220− μm): 5 | Percentage of cell aggregates by size (size range 220− μm): 2.5% | Number of cell aggregates by size (size range 240− μm): 1 | Percentage of cell aggregates by size (size range 240− μm): 0.5% | Number of cell aggregates by size (size range 260− μm): 1 | Percentage of cell aggregates by size (size range 260− μm): 0.5% | Number of cell aggregates by size (size range 280− μm): 1 | Percentage of cell aggregates by size (size range 280− μm): 0.5% | Number of cell aggregates by size (size range 300− μm): 0 | Percentage of cell aggregates by size (size range 300− μm): 0.0% | average ± standard deviation of cell aggregate sizes (diameters): 164.8±31.8 μm

C=C1[C@@H](C)[C@H]2[C@H](Cc3ccccc3)NC(=O)[C@]23[C@H](OC(C)=O)/C=C/[C@@](C)(O)C(=O)[C@@H](C)C/C=C/[C@H]3[C@@H]1O [cytochalasin D]
percentage of cell aggregates whose size (diameter) was 40 μm or more and 300 μm or less, relative to the total cell aggregate count: 100% | percentage of cell aggregates whose size (diameter) was 60 μm or more and 300 μm or less: 96% | percentage of cell aggregates whose size (diameter) was 80 μm or more and 300 μm or less: 88.1% | percentage of cell aggregates whose size (diameter) was 100 μm or more and 300 μm or less: 80.6% | Number of cell aggregates by size (size range 40− μm): 10 | Percentage of cell aggregates by size (size range 40− μm): 4.0% | Number of cell aggregates by size (size range 60− μm): 20 | Percentage of cell aggregates by size (size range 60− μm): 7.9% | Number of cell aggregates by size (size range 80− μm): 19 | Percentage of cell aggregates by size (size range 80− μm): 7.5% | Number of cell aggregates by size (size range 100− μm): 26 | Percentage of cell aggregates by size (size range 100− μm): 10.3% | Number of cell aggregates by size (size range 120− μm): 60 | Percentage of cell aggregates by size (size range 120− μm): 23.8% | Number of cell aggregates by size (size range 140− μm): 66 | Percentage of cell aggregates by size (size range 140− μm): 26.2% | Number of cell aggregates by size (size range 160− μm): 40 | Percentage of cell aggregates by size (size range 160− μm): 15.9% | Number of cell aggregates by size (size range 180− μm): 10 | Percentage of cell aggregates by size (size range 180− μm): 4.0% | Number of cell aggregates by size (size range 200− μm): 0 | Percentage of cell aggregates by size (size range 200− μm): 0.0% | Number of cell aggregates by size (size range 220− μm): 1 | Percentage of cell aggregates by size (size range 220− μm): 0.4% | Number of cell aggregates by size (size range 240− μm): 0 | Percentage of cell aggregates by size (size range 240− μm): 0.0% | Number of cell aggregates by size (size range 260− μm): 0 | Percentage of cell aggregates by size (size range 260− μm): 0.0% | Number of cell aggregates by size (size range 280− μm): 0 | Percentage of cell aggregates by size (size range 280− μm): 0.0% | Number of cell aggregates by size (size range 300− μm): 0 | Percentage of cell aggregates by size (size range 300− μm): 0.0% | average ± standard deviation of cell aggregate sizes (diameters): 132.5±34.8 μm
